Consider 15 molecules from article PMC5794198, “Inhibitors of Trypanosoma cruzi Sir2 related protein 1 as potential drugs against Chagas disease” (PLoS Neglected Tropical Diseases, 2018).

One data set concerns the target T1, human SIRT1 (Homo sapiens, UniProt Q96EB6).
T1 sequence (Q96EB6 1-747): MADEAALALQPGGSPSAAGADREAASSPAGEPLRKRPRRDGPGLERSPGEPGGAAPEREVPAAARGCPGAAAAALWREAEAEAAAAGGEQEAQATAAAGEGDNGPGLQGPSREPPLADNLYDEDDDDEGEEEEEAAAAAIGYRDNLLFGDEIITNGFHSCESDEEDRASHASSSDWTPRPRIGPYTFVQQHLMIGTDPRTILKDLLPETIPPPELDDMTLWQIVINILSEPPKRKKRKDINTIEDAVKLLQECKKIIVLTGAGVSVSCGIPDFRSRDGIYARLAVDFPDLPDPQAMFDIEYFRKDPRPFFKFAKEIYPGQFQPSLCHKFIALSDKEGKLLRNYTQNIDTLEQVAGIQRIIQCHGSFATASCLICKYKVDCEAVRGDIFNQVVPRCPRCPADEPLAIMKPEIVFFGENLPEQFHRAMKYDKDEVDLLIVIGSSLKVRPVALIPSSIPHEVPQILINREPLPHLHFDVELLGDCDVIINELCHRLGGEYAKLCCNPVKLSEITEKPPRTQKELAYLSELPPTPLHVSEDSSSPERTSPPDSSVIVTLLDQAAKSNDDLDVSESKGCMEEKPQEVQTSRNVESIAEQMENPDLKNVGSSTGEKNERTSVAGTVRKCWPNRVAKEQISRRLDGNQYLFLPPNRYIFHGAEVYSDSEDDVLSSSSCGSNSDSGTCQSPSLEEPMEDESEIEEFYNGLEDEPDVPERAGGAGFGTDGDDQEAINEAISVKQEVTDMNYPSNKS
The data set is described as follows: hSIRT1 deacetylase inhibition (CycLex kit). As to conditions: 10 µM, n=2, N.I. = no inhibition; for inhibition at 10 µM: read-out: hSIRT1 Inhibition at 10 µM (% ± SD). The class given is biochemical.

A further data set has as its system C2C12 cells. As to the kind of experiment: C2C12 host cell cytotoxicity (cell ratio) in HCS assay. Format: cell-based, Mouse. Particulars: for Selectivity Index: CC50 cell line (C2C12)/EC50 T. cruzi; for CC50: cell ratio, 72 h, read-out: C2C12 Cytotoxicity (CC50 ± SD). On the procedure: (§1) For the evaluation of the activity against T. cruzi amastigotes, high-content screening (HCS) was designed. In summary, 100 μL of host C2C12 cells (ATCC) were seeded in clear bottom black 96-well plates at a density of 2.5 x 10^4 cells/mL (2.5 × 10^3 cells/well). […] The parasites were allowed to infect for a 24 hr period, after which compounds were added in a volume of 50 μL. […] After 72 hrs of compound incubation, the wells were fixed with 4% paraformaldehyde for 15 to 30 mins. The plates were then washed once with deionized water and stained with a solution of DAPI (3 μM) for 1 hour. Plates were imaged in an INCell 2000 (GE Healthcare) high-content analyser by taking 16 pictures per well at 20 X objective amplification. Images were analysed with INCell Developer software (GE Healthcare) using the segmentation of host cell nuclei and parasite kinetoplast DNA. The measurement output used was the average number of parasites per cell calculated by the ratio of host cell nuclei/parasite kinetoplast DNA.

Another data set has as its system T. cruzi amastigotes. The data set is described as follows: High-content screening assay on intracellular T. cruzi amastigotes. The class given is cell-based, Trypanosoma cruzi. Particulars: for EC50: Y strain in C2C12 host cells, 72 h, read-out: Anti-T. cruzi Activity Amastigotes (EC50 ± SD). On the procedure:
For the evaluation of the activity against T. cruzi amastigotes, high-content screening (HCS) was designed. In summary, 100 μL of host C2C12 cells (ATCC) were seeded in clear bottom black 96-well plates at a density of 2.5 x 10^4 cells/mL (2.5 × 10^3 cells/well). After 24 hrs, 50 μL of Y strain tissue culture-derived trypomastigotes were used to infect the host cells at a density of 7.5 x 10^5/mL (3.75 x 10^4 parasites/well). The parasites were allowed to infect for a 24 hr period, after which compounds were added in a volume of 50 μL. […] After 72 hrs of compound incubation, the wells were fixed with 4% paraformaldehyde for 15 to 30 mins. The plates were then washed once with deionized water and stained with a solution of DAPI (3 μM) for 1 hour. Plates were imaged in an INCell 2000 (GE Healthcare) high-content analyser by taking 16 pictures per well at 20 X objective amplification. Images were analysed with INCell Developer software (GE Healthcare) using the segmentation of host cell nuclei and parasite kinetoplast DNA. The measurement output used was the average number of parasites per cell calculated by the ratio of host cell nuclei/parasite kinetoplast DNA.
In this assay, the compounds are incubated for 72 hours with cells previously infected with wild-type trypomastigotes for 24 hours. The readout was done by comparing the average number of amastigotes per cell that developed by the end of the incubation period. The quality of the assay was statistically evaluated by the calculation of the z-factor [75], that represents the reliability of the assay in distinguishing positive controls confidently from negative controls. Varying from 0 to 1, z-factor values higher than 0.5 are considered acceptable for drug screening. The z-factor obtained was 0.68, validating the use of the assay (S3B Fig).

Data set [1] can be described thus: C2C12 host cell cytotoxicity (cell ratio) in HCS assay. Format: cell-based, Mouse. As to conditions: mouse, cell ratio, 72 h; read-out: C2C12 Cytotoxicity (CC50 ± SD). The protocol:
as §1

For the next data set, the target named is TcSir2rp1 (Trypanosoma cruzi, UniProt Q4DVL9). The data set is described as follows: TcSir2rp1 NAD+-dependent deacetylase fluorimetric assay (CycLex kit). The class given is biochemical. Particulars: for Inhibition of NAD+-dependent deacetylase activity of TcSir2rp1 / inhibition at 10 µM: single dose 10 μM, 200 μM NAD+, 10 μM peptide. The protocol: The deacetylase activity was measured using the commercial SIRT1/Sir2 Deacetylase Fluorometric Assay Kit (CycLex,Japan) according to the manufacturer’s recommendations. Briefly, fluorescence emission after digestion of deacetylated substrates by a lysine specific endopeptidase was measured in a fluorometric plate reader (Synergy HT, BioTek) with excitation and emission wavelengths set at 340 and 440 nm, respectively, every 30 seconds for 1 hour. The slope of the linear part of the reaction was calculated and used as readout of enzyme activity. […]
A variety of the bisnaphthalimidopropyl (BNIPs) derivatives, as well as the newly synthetized derivatives were evaluated as potential TcSir2rp1 inhibitors. The enzymatic reactions were performed using a commercially available CycLex SIRT1/Sir2 deacetylase fluorimetric kit (CycLex Co. Ltd., Nagano, Japan) in the absence and presence of the various inhibitors, 200 μM NAD^+ and 10 μM of peptide substrate as previously described.
A variety of the bisnaphthalimidopropyl (BNIPs) derivatives, as well as the newly synthetized derivatives were evaluated as potential TcSir2rp1 inhibitors. The enzymatic reactions were performed using a commercially available CycLex SIRT1/Sir2 deacetylase fluorimetric kit (CycLex Co. Ltd., Nagano, Japan) in the absence and presence of the various inhibitors, 200 µM NAD^+ and 10 µM of peptide substrate as previously described.

The nature of a further data set: Solubility. The class given is physicochemical. As to conditions: limits the concentration tested.

Entries after “also recorded” stand apart in the source; their conditions may differ. Like-named read-outs stand apart in the source and are kept apart here. Some results are limits rather than exact numbers.

Sequence of TcSir2rp1 (Q4DVL9 entry or part of it): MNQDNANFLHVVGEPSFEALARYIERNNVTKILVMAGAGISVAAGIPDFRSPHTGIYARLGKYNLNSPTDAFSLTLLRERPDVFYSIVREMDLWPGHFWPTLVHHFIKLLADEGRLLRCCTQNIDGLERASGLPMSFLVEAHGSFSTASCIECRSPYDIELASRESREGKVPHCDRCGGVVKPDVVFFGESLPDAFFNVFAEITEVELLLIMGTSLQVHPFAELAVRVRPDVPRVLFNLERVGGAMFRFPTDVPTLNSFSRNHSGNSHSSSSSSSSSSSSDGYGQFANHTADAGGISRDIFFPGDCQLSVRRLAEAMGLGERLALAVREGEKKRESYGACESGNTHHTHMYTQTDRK

Consider `O=C1c2cccc3cccc(c23)C(=O)N1CCCNc1ccc(NCCCN2C(=O)c3cccc4cccc(c34)C2=O)cc1` [Compound 1c], for which the “hSIRT1 Inhibition at 10 µM (% ± SD)” value on human SIRT1 is reported as “N.I”.
As for `O=C1c2cccc3cccc(c23)C(=O)N1CCCNC1CCC(NCCCN2C(=O)c3cccc4cccc(c34)C2=O)CC1` (stereo not shown) [Compound 1a], in the data set with C2C12 cells, the “Selectivity Index” value came to 1.4 and the CC50 was found to be 8.74 ± 1.14 µM. Besides, in the data set with T. cruzi amastigotes, the EC50 is 6.09 ± 0.14 µM. On human SIRT1, the “hSIRT1 Inhibition at 10 µM (% ± SD)” value worked out at 1 ± 1%.
For the molecule `O=C1c2cccc3cccc(c23)C(=O)N1CCCNCCCCNCCCN1C(=O)c2cccc3cccc(c23)C1=O` [Compound 1], in data set [1], the CC50 at 72 h was 2.91 ± 0.94 µM. Moreover, the “Selectivity Index” value with C2C12 cells stood at 1.7. Further, in the data set on T. cruzi amastigotes (Trypanosoma cruzi, C2C12, 72 h), the EC50 came out at 1.71 ± 0.23 µM.
As to `O=C1c2cccc3c(Cl)ccc(c23)C(=O)N1CCCN1CCN(CCCN2C(=O)c3cccc4c(Cl)ccc(c34)C2=O)CC1` [Compound 13], at TcSir2rp1, the inhibition at 20 µM came out at 48 ± 6%, the “Inhibition of NAD+-dependent deacetylase activity of TcSir2rp1” value (shortened to “Inhibition … of TcSir2rp1”) is “statistically significant inhibition” and the inhibition at 10 µM was 50 ± 8%. In addition, on TcSir2rp1 (both at 10 μM), the “Inhibition of T. cruzi enzyme relative to hSIRT1, fold higher” value is reported as “at least 3 fold”. Besides, the CC50 at 72 h in data set [1] was > 2.5 µM. In addition, the EC50 in the data set with T. cruzi amastigotes (Trypanosoma cruzi, C2C12, 72 h) was 0.59 ± 0.23 µM. Also, in “Solubility”, the “Solubility in assay (qualitative)” value was “low solubility”. In addition, the inhibition at 10 µM at human SIRT1 was 15 ± 4%.
As for `O=C1c2cccc3cccc(c23)C(=O)N1CCCNCCCCCCCCNCCCN1C(=O)c2cccc3cccc(c23)C1=O` [Compound 5], at TcSir2rp1, the “Inhibition … of TcSir2rp1” value is reported as “not active; also recorded: very little if any activity”. In the data set on T. cruzi amastigotes (single dose screening), the “Activity against amastigotes (primary screening)” value is given as “very little if any activity”.
Take `CC(/C=C/C(=O)NO)=C\[C@@H](C)C(=O)c1ccc(N(C)C)cc1` [trichostatin A, reference compound]: the “TcSir2rp1 deacetylase activity still displayed” value on TcSir2rp1 (inhibitor at 1 μM) was determined as 77 ± 8%.
Consider `O=C1c2cccc3cccc(c23)C(=O)N1CCCN1CCC(CCCC2CCN(CCCN3C(=O)c4cccc5cccc(c45)C3=O)CC2)CC1` [Compound 6a], for which the CC50 at 72 h in data set [1] was 2.88 ± 0.12 µM. Further, the “Selectivity Index” value with C2C12 cells is 2.0. For the same molecule, in the data set with T. cruzi amastigotes (Trypanosoma cruzi, C2C12, 72 h), the EC50 stood at 1.45 ± 0.3 µM. In addition, at human SIRT1, the inhibition at 10 µM was found to be 3 ± 4%.
On to `O=C1c2cccc3cccc(c23)C(=O)N1CCCNCCOCCOCCNCCCN1C(=O)c2cccc3cccc(c23)C1=O` [Compound 9a], for which, at TcSir2rp1, the inhibition at 50 µM stood at 29 ± 4%, the “Inhibition … of TcSir2rp1” value was “statistically significant inhibition” and the inhibition at 10 µM worked out at 28 ± 13%. For the same molecule, in data set [1], the CC50 at 72 h was 7.37 ± 0.65 µM. Moreover, the “Selectivity Index” value with C2C12 cells is reported as 2.1. For the same molecule, the EC50 in the data set with T. cruzi amastigotes (Trypanosoma cruzi, C2C12, 72 h) turned out to be 3.43 ± 0.57 µM. Moreover, the inhibition at 10 µM on human SIRT1 is 3 ± 4%.
Turning to `O=C1c2cccc3cccc(c23)C(=O)N1CCCNCCCCCCCCCCCCNCCCN1C(=O)c2cccc3cccc(c23)C1=O` [Compound 8], at TcSir2rp1, the inhibition at 50 µM stood at 31 ± 9% and the “Inhibition … of TcSir2rp1” value is reported as “statistically significant inhibition”. Moreover, in data set [1], the 50% cytotoxic concentration (CC50) at 72 h was 1.91 ± 0.06 µM. Also, in the data set on C2C12 cells, the “Selectivity Index” value was found to be 1.3. Further, in the data set with T. cruzi amastigotes (Trypanosoma cruzi, C2C12, 72 h), the EC50 was 1.43 ± 0.1 µM.
As to `O=C1c2cccc3cccc(c23)C(=O)N1CCCNCCCNCCCCNCCCNCCCN1C(=O)c2cccc3cccc(c23)C1=O` [Compound 10], in “Solubility”, the “Solubility in assay (qualitative)” value is “poor solubility”.
Consider `O=C1c2cccc3cccc(c23)C(=O)N1CCCNC1CCC(CC2CCC(NCCCN3C(=O)c4cccc5cccc(c45)C3=O)CC2)CC1` (stereo not shown) [Compound 6b], for which the inhibition at 10 µM was determined as 8 ± 5% at TcSir2rp1 and 44 ± 8% on human SIRT1.
Regarding `C[N+]1(CCCN2C(=O)c3cccc4cccc(c34)C2=O)CCN(CCCN2C(=O)c3cccc4cccc(c34)C2=O)CC1` [Compound 12], the CC50 at 72 h in data set [1] is > 50 µM. Also, the “Selectivity Index” value in the data set with C2C12 cells was > 1.7. Further, the EC50 in the data set on T. cruzi amastigotes (Trypanosoma cruzi, C2C12, 72 h) was found to be 28.7 ± 4.09 µM. At human SIRT1, the “hSIRT1 Inhibition at 10 µM (% ± SD)” value was “N.I”.
On to `O=C1c2cccc3cccc(c23)C(=O)N1CCCNC1CCC(NCCCN2C(=O)c3cccc4cccc(c34)C2=O)CC1` (stereo not shown) [Compound 1b], for which, in the data set with C2C12 cells, the “Selectivity Index” value is reported as > 3.2 and the CC50 is > 2.5 µM. Moreover, the EC50 with T. cruzi amastigotes is 0.78 ± 0.12 µM. In addition, the “hSIRT1 Inhibition at 10 µM (% ± SD)” value on human SIRT1 is reported as 3 ± 4%.
For the molecule `O=C1c2cccc3cccc(c23)C(=O)N1CCCNCCCN1CCN(CCCNCCCN2C(=O)c3cccc4cccc(c34)C2=O)CC1` [Compound 7a], the CC50 at 72 h in data set [1] was found to be 19.3 ± 5.64 µM. Moreover, the “Selectivity Index” value in the data set with C2C12 cells is listed as 1.4. In addition, the EC50 in the data set with T. cruzi amastigotes (Trypanosoma cruzi, C2C12, 72 h) stood at 13.6 ± 2.9 µM. Also, the “hSIRT1 Inhibition at 10 µM (% ± SD)” value on human SIRT1 is reported as “N.I”.
Consider `O=C1c2cccc3cccc(c23)C(=O)N1CCCNc1ccc(Cc2ccc(NCCCN3C(=O)c4cccc5cccc(c45)C3=O)cc2)cc1` [Compound 6c], for which the “Solubility in assay (qualitative)” value in the data set “Solubility” is “poor solubility”. Further, the inhibition at 10 µM on human SIRT1 was 8 ± 1%.

A word on the CC50: it is the concentration at which the toxic effect on the cells reaches its halfway point. What is called EC50 is the midpoint of the concentration-response curve. For orientation: inhibition means how much of the control response was suppressed.
